We go through 22 molecules from patent US20250066412A1, “CRYSTAL OF 4’-SUBSTITUTED NUCLEOSIDE, PREPARATION METHOD THEREFOR, COMPOSITION CONTAINING THE SAME, AND USE THEREOF” (HENAN GENUINE BIOTECH CO., LTD., priority 2022, published 2025).

In series [1] the test system is HIV. To be noted: cited from earlier work; for EC50: E. Michailidis et al J. Biol. Chem. 2009, read-out: HIV inhibitory activity EC50; for inhibitory activities against HIV: literature reports.
In series [2] the test system is HIV. To be noted: CN109893536 B; read-out: anti-HIV activity EC50; cited from earlier work.
The conditions of series [3]: at 110° C., DSC and TGA studies, background; cited from earlier work.
Series [4] in a line: crystal form stability by XRPD after heating, drying or storage. The note with it: for XRPD / crystal form after heating: heated to 120° C.
Where [5] appears, read: heated to 160° C. under nitrogen protection.
Where [6] appears, read: heated to 130° C. under nitrogen.
Where [7] appears, read: vacuum drying at room temperature for 24 h.

Where two headings read alike, the source gives them in different places.

What is called EC50 is the concentration needed to bring the measured effect to its halfway point. `C#C[C@]1(CO)O[C@@H](n2cnc3c(N)nc(F)nc32)C[C@@H]1O` [Compound 1]: in the series on HIV [1], the EC50 was 0.05 nM and the “inhibitory activities against HIV” value is reported as “significant inhibitory activities”. In addition, the “increase of HIV inhibitory activity by introduction of 2-fluorine” value with HIV [1] (EFdA versus EdA) is given as 2200 times.

`C#C[C@]1(CO)O[C@@H](n2cnc3c(N)ncnc32)C[C@@H]1O` [EdA, 4′-ethynyl-2′-deoxyadenosine]: the concentration giving a half-maximal response (EC50) in the series with HIV [1] is 11 nM.

As for `C#C[C@]1(CO)O[C@@H](n2cnc3c(N)nc(F)nc32)[C@@H](F)[C@@H]1O` [compound (3), (2R,3R,4S,5R)-5-(6-amino-2-fluoro-9H-purin-9-yl)-2-ethynyl-4-fluoro-2-(hydroxymethyl)tetrahydrofuran-3-ol], the EC50 in the series with HIV [2] is 0.9 nM.

For `[N-]=[N+]=N[C@]1(CO)O[C@@H](n2ccc(N)nc2=O)[C@@H](F)[C@@H]1O` [compound (II)], the “inhibitory activities against HIV” value with HIV [1] was “significant inhibitory activities”.

`C#C[C@]1(CO)O[C@@H](n2cnc3c(N)nc(F)nc32)[C@@H](F)[C@@H]1O` [crystal form A]: the weight loss in series [3] is listed as 9.0%.

Turning to `C#C[C@]1(CO)O[C@@H](n2cnc3c(N)nc(F)nc32)[C@@H](F)[C@@H]1O` [type-I crystal], in series [4] (heated to 55° C. under nitrogen, cooled to room temperature, exposed to air), the XRPD after heating result is reported as “the diffraction peak intensity of the sample was somewhat reduced”. In addition, the “crystal form after heating (XRPD)” value in series [4] (heated to 100° C. under nitrogen protection) was “transformed into an amorphous crystal”. The weight loss was 3.5% (further heated from 110° C. to 200° C.) and 13.2% (heated to 110° C.).

With `C#C[C@]1(CO)O[C@@H](n2cnc3c(N)nc(F)nc32)[C@@H](F)[C@@H]1O` [type-II crystal], the “crystal form after drying” value in series [4] (vacuum dried at room temperature for half an hour) is recorded as “transformed into a type-III crystal”.

On to `C#C[C@]1(CO)O[C@@H](n2cnc3c(N)nc(F)nc32)[C@@H](F)[C@@H]1O` [type-III crystal], for which the “crystal form after heating (variable-temperature XRPD)” value in series [4] (heated to 150° C. under nitrogen protection) is given as “the crystal form did not change”. The molecule further had a weight loss (heated to 200° C.) of 1.2%.

As for `C#C[C@]1(CO)O[C@@H](n2cnc3c(N)nc(F)nc32)[C@@H](F)[C@@H]1O` [type-IV crystal], the XRPD after storage result in series [4] (dried crystal left closed at room temperature for about 5 days) is “increased relative intensity of the diffraction peaks and increased number of diffraction peaks”. Also, the “crystal form after heating (XRPD)” value in series [4] (heated to 141° C. under nitrogen protection) is “transformed into a stable type-III crystal”. Also, the XRPD after drying entry in series [4] (vacuum dried at room temperature for 15 min) is on record as “decreased relative intensity of the diffraction peaks”. Also, the weight loss (heated to 120° C.) is 10.6%.

Consider `C#C[C@]1(CO)O[C@@H](n2cnc3c(N)nc(F)nc32)[C@@H](F)[C@@H]1O` [type-IX crystal], for which the “crystallinity after heating (XRPD)” value in series [4] (heated to 95° C. under nitrogen, cooled to room temperature, exposed to air) was “the degree of crystallinity was further decreased”. Also, the “crystal form after heating (XRPD)” value in series [4] (setting [5]) is reported as “its crystal form had been transformed”. Besides, the crystallinity after storage result in series [4] (left closed at room temperature for about 3 days) is listed as “a reduced degree of crystallinity”. In addition, the weight loss (heated to 160° C.) amounted to 20.3%.

Regarding `C#C[C@]1(CO)O[C@@H](n2cnc3c(N)nc(F)nc32)[C@@H](F)[C@@H]1O` [type-V crystal], the “crystal form after heating (variable-temperature XRPD)” value in series [4] (further heated to 154° C.) was “transformed into another crystal”; in series [4] (heated to 90° C. and 130° C. under nitrogen protection), “substantially transformed into an amorphous crystal”. Besides, the “crystallinity (variable-temperature XRPD)” value in series [4] (purged with nitrogen for about 20 min) is listed as “significant decrease in degree of crystallinity”. The weight loss came to 2.8% (further heated from 140° C. to 240° C.) and 15.4% (heated to 140° C.).

For the molecule `C#C[C@]1(CO)O[C@@H](n2cnc3c(N)nc(F)nc32)[C@@H](F)[C@@H]1O` [type-VI crystal], in series [4] (setting [5]), the “crystal form after heating (XRPD)” value is listed as “the crystal form was transformed”. The weight loss runs as follows: (further heated from 70° C. to 130° C.) 5.9%; (heated to 70° C.) 4.9%.

Take `C#C[C@]1(CO)O[C@@H](n2cnc3c(N)nc(F)nc32)[C@@H](F)[C@@H]1O` [type-VII crystal]: the XRPD after heating entry in series [4] (setting [6]) was “the crystal form was transformed”. For the setting “heated to 130° C.”, the weight loss stood at 11.2%.

As to `C#C[C@]1(CO)O[C@@H](n2cnc3c(N)nc(F)nc32)[C@@H](F)[C@@H]1O` [type-VIII crystal], the “crystal form after heating (XRPD)” value in series [4] (setting [5]) was “the crystal form had been transformed”. For the setting “heated to 160° C.”, this molecule showed a weight loss of 10.6%.

In the case of `C#C[C@]1(CO)O[C@@H](n2cnc3c(N)nc(F)nc32)[C@@H](F)[C@@H]1O` [type-X crystal], in series [4] (further heated to 145° C.), the “crystal form after heating (variable-temperature XRPD)” value is listed as “the crystal form was transformed”. Further, the “XRPD / crystal form after heating” value in series [4] is reported as “the position of the diffraction peak shifted”. For the same molecule, in series [4] (setting [6]), the XRPD after heating result was “the diffraction peak intensity was significantly reduced”. Besides, the weight loss turned out to be 4.5% (further heated from 130° C. to 160° C.) and 7.9% (heated to 130° C.).

In turn, `C#C[C@]1(CO)O[C@@H](n2cnc3c(N)nc(F)nc32)[C@@H](F)[C@@H]1O` [type-XI crystal] came in with a weight loss (heated to 120° C.) of 19.3%.

Regarding `C#C[C@]1(CO)O[C@@H](n2cnc3c(N)nc(F)nc32)[C@@H](F)[C@@H]1O` [type-XII crystal], in series [4] (vacuum dried at room temperature for 10 min), the “crystal form after drying” value is on record as “transformed into an amorphous crystal”. Also, the weight loss (heated to 120° C.) stood at 59.6%.

As to `C#C[C@]1(CO)O[C@@H](n2cnc3c(N)nc(F)nc32)[C@@H](F)[C@@H]1O` [type-XIII crystal], the “crystal form in a solvent environment” value in series [4] (left in a solvent environment at room temperature) is “transformed into the type-XIV crystal”. Moreover, the “crystal form after drying” value in series [4] (left open and dried at room temperature for about 2 h) is given as “the crystal form was transformed”.

As to `C#C[C@]1(CO)O[C@@H](n2cnc3c(N)nc(F)nc32)[C@@H](F)[C@@H]1O` [type-XIV crystal], the “stability of the crystal form (overall finding)” value in series [4] was “unstable intermediate state”. Also, the “crystal form after removal from the solvent environment” value in series [4] (room temperature) was “transformed into the type-XIII crystal”.

Turning to `C#C[C@]1(CO)O[C@@H](n2cnc3c(N)nc(F)nc32)[C@@H](F)[C@@H]1O` [type-XV crystal], the “XRPD / crystal form after heating” value in series [4] is “the crystal form transformation occurred”. The weight loss (heated to 120° C.) turned out to be 2.2%.

Turning to `C#C[C@]1(CO)O[C@@H](n2cnc3c(N)nc(F)nc32)[C@@H](F)[C@@H]1O` [type-XVI crystal], the “crystal form after heating (XRPD)” value in series [4] (heated to 55° C. in a nitrogen atmosphere, held for 2 to 24 h) was “the type-XVII crystal was also obtained”. In addition, in series [4] (setting [7]), the “crystal form after drying” value is “turned into a monohydrate crystal form”. Besides, the “weight loss (dehydration)” value under setting [7] is reported as 14.39%.

With `C#C[C@]1(CO)O[C@@H](n2cnc3c(N)nc(F)nc32)[C@@H](F)[C@@H]1O` [type-XVII crystal], in series [4] (dried at 90° C. for 1 to 24 h), the change on drying result was “lost one molecule of water”. Under “dried at 90° C. for 1 to 24 h”, this molecule gave a weight loss of 5.47%.
